This note sets out measurements from patent publication US20080114063A1, “Use of 2,5-Dihydroxybenzene Derivatives for the Treatment of Tissue Reactive Diseases” (Action Medicines, priority 2006, published 2008).

Entries after “also recorded” stand apart in the source; their conditions may differ.

Test [1] addresses fibroblast growth factor-1 (FGF-1) (Homo sapiens, UniProt P05230). The test can be described thus: Co-crystallization with FGF-1 (crystal diffraction). In kind it is binding. The following applies: electron density contoured at 1σ, site close to that of 2,5-dihydroxybenzenesulfonic acid. The procedure:
Based on the crystal diffraction of the FGF-1:2-acetoxy-5-hydroxybenzene sulfonic acid, FGF-1:5-acetoxy-2-hydroxybenzene sulfonic acid and FGF-1:2,5-diacetoxybenzene sulfonic acid complexes, the structures of the complexes were calculated and represented. FIGS. 20, 21 and 22, which show the surface of the dyed protein according to its electrostatic potential (light grey: negative charge; dark grey: positive charge; white: lack of charge), show the manner in which 2-acetoxy-5-hydroxybenzene sulfonic acid, 5-acetoxy-2-hydroxybenzene sulfonic acid and 2,5-diacetoxybenzene sulfonic acid interact, respectively, with FGF-1.

Test [2] has as its system rat C6 glioma cells. The test can be described thus: Proliferation of rat glioma C6 cells (crystal violet). In kind it is cell-based. The note with it: 500 μM, 48 h, crystal violet absorbance at 595 nm. As to the method: FIG. 19. […] 5A-2HBS and 2A-5HBS were administered or not (control) after seeding C6 cells in 24 well plates (10^4 per well) until they were fixed 48 hours later. Data are expressed as the mean ±SEM of the percentage of absorbance at 595 nm obtained in control cultures, which is proportional to the number of cells stained with crystal violet. Data were obtained from 3 cultures for each treatment and 6 control cultures.
The cell line used was the C6 cell line and the experiment was carried out as described in examples 2 and 3. Once adhered, the cells were treated or not (controls) with (5A-2HBS) (500 μM) or (2A-5HBS) (500 μM) and they were allowed to proliferate for 48 h. After this time the glioma cell proliferation was evaluated by means of staining the fixed cells with crystal violet. The number of cells is proportional to the amount of retained dye, which was determined spectrophotometrically by measuring the absorbance at 595 nm once the dye was extracted from the cells.

The subject of test [3] is fibroblast growth factor-1 (FGF-1) induced mitogenesis in Balb/c 3T3 fibroblasts. Briefly: Inhibition of FGF-1 induced mitogenesis in quiescent Balb/c 3T3 fibroblast cultures. The note with it: quiescent cultures of Balb/c 3T3 fibroblasts. The test is classed as cell-based. The procedure: The evaluated compounds were used in the form of potassium salt, except in the first case in which calcium salt was used. The experiments were carried out as described in Fernández-Tornero C et al. J Biol Chem, 2003.

Test [4] deals with intestinal inflammatory disease (IID) induced by 3% dextran sulfate sodium. The test can be described thus: Intestinal inflammatory disease induced by dextran sulfate sodium (DSS) in the mouse. In kind it is in vivo, mice of strain C57BL/6J-664. The following applies: for disease clinical score (0 to 6 scale): two DSS cycles. An excerpt:
The induction of the intestinal inflammatory disease described below is a representative model for the evaluation of therapeutic strategies to treat Crohn's disease and ulcerative colitis. 7-8 week old female mice of strain C57BL/6J-664 were used. The intestinal inflammatory disease (IID) was induced by feeding the mice with 3% dextran sulfate sodium (DSS; MW 40,000) dissolved in drinking water in 2 cycles. Each cycle consisted of 7 days with 3% DSS in the drinking water separated by 7 days with regular water. A daily clinical evaluation of the animals was performed in which the body weight, the consistency of the faeces and the presence of blood in the faeces were determined. Thus, the validated score of the clinical activity of the disease was evaluated with a 0 to 6 scale, considering the following parameters: consistency of the faeces, presence or absence of fecal blood and loss of weight.
At the end of the first cycle of exposure to DSS, the mice were divided into the following treatment groups: a first group was administered intraperitoneal (i.p) injections of vehicle (0.9% NaCl). Another group received intramuscular injections of Solu-Medrol, a standard IID treatment, at a dose of 10 mg/kg/day. A third group was administered i.p. injections of potassium 2,5-diacetroxybenzene sulfonate (DABS, 100 mg/kg/day). The last group was treated orally with 125 mg/kg day of DABS.

Test [5] relates to Leishmania major. Briefly: Experimental infection with Leishmania major in mouse paw pad (lesion size). In kind it is in vivo, Leishmania major in BALB/c female mice. The text has this: This model is based in the massive inoculation of Leishmania promatigotes in the mouse paw pad. Under these conditions, the parasite induces a progressive inflammation correlated with the multiplication of parasites at the site of inoculation. BALB/c strain female mice that developed severe and uncontrolled injuries were used (Foote S J, Handman E. Brief Funct Genomic Proteomic, 2005). This model has been used in pharmacology to monitor the therapeutic capacity of new leishmanicide compounds and the preventive capacity of potential vaccines against leishmaniasis ((Nelson K G et al. Antimicrob Agents Chemother. 2006).
The animals were inoculated with 5×10^6 of L. major promastigotes (strain Hervás) in 50 μL of PBS into the plantar pad of the right back paw. As negative control of the infection, a group of mice inoculated with 50 μL of PBS was used. The sizes of the lesions were measured every 7 days until the animals were sacrificed (week 9) using a Vernier caliper. The thickness of the right back paw (infected) and the left back paw (uninfected) of all the animals was measured at the base of the fifth toe. The progression of the inflammation is represented as the difference in thickness between the infected and the non-infected paws. […]

For test [6], the system named is OVA-sensitized mice. The test can be described thus: Experimentally induced (OVA) asthma in mice: methacholine bronchoconstriction and BAL cell count. In kind it is in vivo, Balb/c mice. The following applies: for methacholine induced bronchoconstriction (Penh): methacholine 5 and 20 mg/mL. As to the method: 6-9 week old Balb/c mice were used. The ovoalbumin (OVA)/aluminum complex was obtained after dissolving OVA (500 μg/mL) in PBS, and mixing it with an equal volume of 10% aluminum potassium sulfate at pH 6.5 for 1 hour. After centrifuging the pellet (750×g for 5 minutes) the OVA/aluminum pellet was resuspended in distilled water. On day 0, the mice were intraperitoneally injected with 100 μg of OVA/aluminum. Eight days later, the mice were anesthetized and exposed to 250 μg of OVA. Later, they were administered 125 μg of OVA on days 15, 18 and 21. Each […] received sublingual administration of OVA.
The following treatments were administered to the animals: (i.p.) vehicle from day 2, potassium 2,5-diacetoxybencene sulfonate (DABS; 100 mg/kg/day, i.p.) from day 2, DABS (100 mg/kg/day, i.p.) from day 8 and Combivent (20 μg/200 μg in aerosol) on days 20, 21 and 22, the latter as a reference treatment.
In order to evaluate the pulmonary function, the response to methacholine in conscious mice was determined, 24 hours after the last exposure to OVA. The mice were exposed to increasing methacholine concentrations (5 and 20 mg/mL) in the form of aerosol using an ultrasonic nebulizer during 2 minutes. The degree of bronchoconstriction was expressed as the enhanced […] (Penh) which correlates to the mouse air resistance, impedance and pressure within the pleura. The Penh was calculated using the formula Penh=[(Te/Rt−1)×(PEF/PIF)], where Te is expiratory time, Rt is relaxation time, PEF is peak expiratory flow and PIF is peak inspiratory flow×0.67 coefficient.
After measuring airway hyperreactivity, the mice were sacrificed and bronchoalveolar lavage (BAL) of the right lung was collected. The total number of cells in the BAL fluid was determined.

fibroblast growth factor-1 (FGF-1), sequence (P05230 whole entry, species assumed): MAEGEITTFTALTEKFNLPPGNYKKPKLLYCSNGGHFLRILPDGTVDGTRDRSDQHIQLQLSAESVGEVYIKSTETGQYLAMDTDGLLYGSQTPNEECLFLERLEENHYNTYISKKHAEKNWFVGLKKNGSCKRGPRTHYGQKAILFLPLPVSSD

Take `CC(=O)Oc1ccc(OC(C)=O)c(S(=O)(=O)O)c1` [2,5-diacetoxybenzenesulfonic acid]: in test [1], the “state of the compound when bound to FGF-1 (co-crystal electron density)” value is “conserves the acetoxyl groups in positions 2 and 5 when it binds to the protein”.
On the same count and under the same terms, as for `CC(=O)Oc1ccc(O)cc1S(=O)(=O)O` [2-acetoxy-5-hydroxybenzenesulfonic acid], the entry is “conserves the acetoxyl group in position 2 when it binds to the protein”; as for `CC(=O)Oc1ccc(O)c(S(=O)(=O)O)c1` [5-acetoxy-2-hydroxybenzenesulfonic acid], “conserves the acetoxyl group in position 5 when it binds to the protein”.
On to `CC(=O)Oc1ccc(O)c(S(=O)(=O)[O-])c1.[K+]` [5A-2HBS, potassium 5-acetoxy-2-hydroxybenzene sulfonate], for which, in test [2], the “rat glioma cell proliferation” value is listed as “inhibition of rat glioma cell proliferation”. The “inhibition of FGF-1 induced mitogenesis” value in test [3] is on record as “Inhibition of FGF-1 induced mitogenesis”.
Take `CC(=O)Oc1ccc(OC(C)=O)c(S(=O)(=O)[O-])c1.[K+]` [DABS, potassium 2,5-diacetoxybenzene sulfonate]: the “disease clinical score (0 to 6 scale)” value in test [4] (100 mg/kg/day i.p.) and in test [4] (125 mg/kg/day orally) was “reduced” throughout. In test [4] (DABS 100 mg/kg/day i.p. or 125 mg/kg/day p.o., two 7-day DSS cycles, vs vehicle), the “loss of body weight produced by DSS” value is recorded as “reduced; also recorded: significant effect on the body weight”. For the same compound, the “efficacy compared with standard treatment Solu-Medrol (body weight and clinical score)” value in test [4] (DABS i.p. or p.o. vs Solu-Medrol 10 mg/kg/day i.m.) is recorded as “not lower (in some points it is higher)”. Further, the “size of the lesion (paw thickness difference)” value in test [5] (200 mg/kg daily i.p. from day 0 to week 9, effect from the third week post-infection) is reported as “statistically significant reduction in the size of the lesion”; in test [5] (200 mg/kg/day i.p. from the third week after inoculation, effect from the eighth week), “significantly smaller”. Further, the “methacholine induced bronchoconstriction (Penh)” value in test [6] (100 mg/kg/day i.p. from day 2) and in test [6] (100 mg/kg/day i.p. from day 8) was “completely prevented” each time. The “presence of cells in bronchoalveolar lavage (BAL)” value in test [6] (100 mg/kg/day i.p., right lung BAL, vs vehicle) is on record as “significantly reduced”. Further, the “increase of the Penh after exposure to methacholine vs saline” value in test [6] (mouse, in vivo) is reported as “do not show a significant increase of the Penh”. Moreover, in test [6] (mouse, in vivo), the “reduction of BAL cells compared with Combivent” value was “even more than the treatment with Combivent”. For the same compound, the “inhibition of FGF-1 induced mitogenesis” value in test [3] is reported as “Inhibition of FGF-1 induced mitogenesis”.
Regarding `C[C@H]1C[C@@H]2[C@H]([C@@H](O)C[C@@]3(C)[C@H]2CC[C@]3(O)C(=O)COC(=O)CCC(=O)O)[C@@]2(C)C=CC(=O)C=C12` [Solu-Medrol, reference compound], the “effect on body weight” value in test [4] (Solu-Medrol 10 mg/kg/day i.m., two 7-day DSS cycles, vs vehicle) was “significant effect on the body weight”.
“calcium 2-acetoxy-5-hydroxybenzenesulfonate [2A-5HBS]”: the “inhibition of FGF-1 induced mitogenesis” value in test [3] is given as “Inhibition of FGF-1 induced mitogenesis”.
